Publication PMC8416020 (eLife, 2021)
Entries after “also recorded” stand apart in the source; their conditions may differ. Where no end group is shown, it is not given here.

Test system: GHSR labeled at I134^3.43, Y232^5.58, V268^6.40, F272^6.44, and S315^7.45
Test: Effect of 7H4MC-ethylglycine labeling on ghrelin binding and Gq activation
Type: biochemical, human
Conditions: positions I134^3.43, Y232^5.58, V268^6.40, F272^6.44, S315^7.45

ghrelin: natural full agonist of GHSR, natural peptide agonist (GSSFLSPEHQRVQQRKESKKPPAKLQPR; not fully specified; ends and bridges not checked; UniProt Q9UBU3 24-51, looked up)
effect of labeling on ghrelin binding and receptor-catalyzed Gq activation: essentially neutral with regard to the ability of the receptor to bind ghrelin and activate Gq; also recorded: affected neither ghrelin binding nor the receptor-catalyzed Gq activation in a relevant manner
